Experimental data as given in patent publication US20260042764A1, “COMPOSITIONS AND METHODS FOR INHIBITION OF KRAS” (TheRas, Inc., priority 2022, published 2026).

Tests used:
SW1900 cells (KRAS G12D) = test: Cell-based pERK HTRF assay in SW1900 cells (Biological Example 5)
Protocol: Biological Example 5: Cell-based PERK HTRF assay in AsPC-1, SW1900, HPAC, Capan-2, RKN, H358, HCT116, KP-2, H1573, A549, MKN1, and HT1080 cells
The inhibition of ERK phosphorylation, as measured using the HTRF Advanced Phospho-ERK 1/2 (Thr202/Tyr204) Detection Assay kit (Perkin Elmer), was used to determine the effectiveness of test compounds in disrupting KRAS-driven protein/effector signaling in cells.
On day 1, cells were seeded into 96-well plates at 2.5×10^4 cells/well in 100 μL of complete growth media supplemented with 10% fetal bovine serum (FBS) and incubated at 37° C., in the presence of 5% CO2.
On day 2, cells were treated with compounds diluted in DMSO at 0.25% final DMSO concentration. Compounds were dosed in a 9-point concentration curve with three-fold dilution between concentrations. Cells were incubated in the presence of compound for two hours at 37° C. Following this treatment period, cells were harvested by aspirating the media, adding 40 μL of kit-supplied 1x lysis buffer per well, and shaking for 30 minutes at 250 rpm at room temperature.
Following cell lysis, samples were homogenized by pipetting up and down twenty times and 16 μL of cell lysate per well was transferred from the 96-well cell culture plate to two wells of a 384-well detection plate. A complete detection buffer was prepared by diluting D2 and Eu Cryptate antibodies 1:20 in kit-provided detection solution, 4 μL of complete detection buffer was then added to each well with lysate. Plates were incubated with gentle rocking for 24 hours at 4° C.
Following this incubation period, plates were centrifuged at 500×g for one minute and analyzed on a CLARIOstar plate reader. Data was imported into Microsoft Excel and the signal from the 665 nm channel was divided by the signal from the 620 nm channel. % pERK was calculated as: […]
Data was imported to the Prism software package (Graphpad) and EC50 values were calculated using the log (inhibitor) vs, response—variable slopc (Four parameters) model.

[1] = target: T1, Avi-KRAS WT (1-169) GppNHp/RAF1 RBD-3xFLAG (52-151) (Homo sapiens, UniProt P01116); test: Raf1-KRAS WT-GppNHP disruption HTRF assay (Biological Example 1); assay type: binding; settings: KRAS WT, GppNHp-loaded; Table 11
T1 construct: Avi-KRAS WT (1-169)
T1 sequence (P01116 1-169 isoform P01116-2): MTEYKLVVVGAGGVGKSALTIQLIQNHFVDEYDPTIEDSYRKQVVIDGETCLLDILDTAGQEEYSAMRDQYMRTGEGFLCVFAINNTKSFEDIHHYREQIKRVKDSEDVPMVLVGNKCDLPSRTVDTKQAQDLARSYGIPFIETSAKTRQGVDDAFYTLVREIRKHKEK
Summary of the method: (§1)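 HTRF PPI disruption; buffer 50 mM Tris pH 7.5, 100 mM NaCl, 5 mM MgCl2, 0.1% BSA, 0.01% Tween, 10% DMSO. Protein mix 1 h RT shaking, reagent mix 1 h RT shaking. Data as % activity vs DMSO (100%).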

SW620 cells (KRAS G12V) = test: Cell-based pERK HTRF assay in SW620 cell (Biological Example 4)
Summary of the method: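 Read-out: HTRF pERK signal (excitation 320 nm, emission 615 nm) from lysates of SW620 cells after 4 h compound exposure. Dose range was 9 points, half-log steps from 1 μM, in 0.25% DMSO; antibody incubation ran 4–24 h at room temperature.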

HCT116 cells (KRAS G13D) = test: 3D Cell viability assay in HCT116 cells (Biological Example 6); assay type: cell-based; settings: HCT116 (KRAS G13D) spheroids, 72 hours
Protocol: Biological Example 6: 3D Cell viability assay in AsPC-1, SW1900, HPAC, Capan-2, RKN, H358, HCT116, KP-2, H1573, A549, MKN1, and HT1080 cells
The inhibition of cellular viability as a result of test compound treatment in a spheroid assay was measured using the CellTiter-Glow 3D Cell Viability Assay (Promega).
On Day 1, 1000 cells per well were seeded in 150 μL of complete growth media supplemented with 10% fetal bovine serum (FBS) and incubated at 37° C., in the presence of 5% CO2 in 96-well ultra-low attachment microplates (Corning) for 48 hours undisturbed to allow spheroids to form.
Following spheroid formation, cells were treated with compounds diluted in DMSO at 0.25% final DMSO concentration. Compounds were dosed in a 9-point concentration curve with three-fold dilution between concentrations. Cells were incubated in the presence of compound for 72 hours at 37° C., in the presence of 5% CO2.
Following this incubation period, the kit-provided CTG reagent was allowed to equilibrate for 30 minutes at room temperature, 150 μL of equilibrated CTG reagent was added to each well, and the plate was sealed before shaking at 250 rpm for 10 minutes at room temperature to lyse the cells, 150 μL of lysate per well was transferred to a 96-well plate and luminescence was read on a CLARIOstar plate reader.
Data was imported into the Prism software package (Graphpad) and EC50 values were calculated using the log (inhibitor) vs, response—variable slope (Four parameters) model.

[2] = target: T2, Avi-KRAS G12D (1-169) GppNHp/RAF1 RBD-3xFLAG (52-151) (Homo sapiens, UniProt P01116, G12D); test: Raf1-KRAS G12D-GppNHP disruption HTRF assay (Biological Example 1); assay type: binding; settings: KRAS G12D, GppNHp-loaded; Table 11
T2 construct: Avi-KRAS G12D (1-169)
T2 sequence (P01116 1-169 isoform P01116-2 G12D): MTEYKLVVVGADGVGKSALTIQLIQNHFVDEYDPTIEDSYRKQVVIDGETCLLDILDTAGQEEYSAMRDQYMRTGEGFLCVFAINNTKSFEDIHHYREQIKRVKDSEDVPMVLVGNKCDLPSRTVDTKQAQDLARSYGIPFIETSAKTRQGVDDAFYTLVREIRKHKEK
Summary of the method: as §1

[3] = Homo sapiens, SW1990, SW1990 cells (text: SW1900, KRAS G12D)
[4] = Homo sapiens, SW-620, SW620 (KRAS G12V) cells
[5] = Homo sapiens, SW-620, SW620 (KRAS G12V) cells, pERK HTRF

For `CN(c1nc(OC[C@@]23CCCN2C[C@H](F)C3)nc2c(F)c(-c3ccc(F)c4sc(N)c(C#N)c34)c(C(F)(F)F)cc12)[C@H]1C[C@@H](O)C1` [Compound 19, 2-amino-7-fluoro-4-((S)-8-fluoro-2-(((2R,7aS)-2-fluorotetrahydro-1H-pyrrolizin-7a(5H)-yl)methoxy)-4-(((1s,3R)-3-hydroxycyclobutyl)(methyl)amino)-6-(trifluoromethyl)quinazolin-7-yl)benzo[b]thiophene-3-carbonitrile], the IC50 (SW1900 cells (KRAS G12D); SW1990 cells (text: SW1900, KRAS G12D)) was at most 100 nM, the IC50 [1] was under 100 nM and the IC50 (SW620 cells (KRAS G12V); SW620 (KRAS G12V) cells) was under 100 nM. The IC50 (SW620 cells (KRAS G12V); SW620 (KRAS G12V) cells, pERK HTRF) was under 100 nM, the IC50 (HCT116 cells (KRAS G13D)) was at most 100 nM and the IC50 [2] was under 100 nM.
`N#Cc1c(N)sc2c(F)ccc(-c3c(C(F)(F)F)cc4c(N5CCCOCC5)nc(OC[C@@]56CCCN5C[C@H](F)C6)nc4c3F)c12` [Compound 232] was tested, and the IC50 (SW1900 cells (KRAS G12D); [3]) was at most 100 nM, the IC50 [1] was 100 to 1000 nM and the IC50 (SW620 cells (KRAS G12V); [4]) was under 100 nM. The IC50 (SW620 cells (KRAS G12V); [5]) was under 100 nM, the IC50 (HCT116 cells (KRAS G13D); Homo sapiens, HCT-116) was at most 100 nM and the IC50 [2] was under 100 nM.
With `N#Cc1c(N)sc2c(F)ccc(-c3c(C(F)(F)F)cc4c(N5CCC[C@@H](O)C5)nc(OC[C@@]56CCCN5C[C@H](F)C6)nc4c3F)c12` [Compound 234] the IC50 (SW1900 cells (KRAS G12D); [3]) was at most 100 nM, the IC50 [1] was 100 to 1000 nM and the IC50 (SW620 cells (KRAS G12V); [5]) was under 100 nM. The IC50 (HCT116 cells (KRAS G13D); Homo sapiens, HCT-116) was 100 to 1000 nM and the IC50 [2] was 100 to 1000 nM.
For `C[C@@H]1[C@H](N(C)c2nc(OC[C@@]34CCCN3C[C@H](F)C4)nc3c(F)c(-c4ccc(F)c5sc(N)c(C#N)c45)c(C(F)(F)F)cc23)CCN1C(=O)C1CC1` [Compound 258], the IC50 (SW1900 cells (KRAS G12D); [3]) was at most 100 nM, the IC50 [1] was under 100 nM and the IC50 (SW620 cells (KRAS G12V); [5]) was under 100 nM. It also gave an IC50 (HCT116 cells (KRAS G13D); Homo sapiens, HCT-116) of 100 to 1000 nM and an IC50 [2] of under 100 nM.
`CCC(=O)N1CC[C@@H](N(C)c2nc(OC[C@@]34CCCN3C[C@H](F)C4)nc3c(F)c(-c4ccc(F)c5sc(N)c(C#N)c45)c(C(F)(F)F)cc23)[C@H]1C` [Compound 260] showed an IC50 (SW1900 cells (KRAS G12D); [3]) of at most 100 nM, an IC50 [1] of under 100 nM and an IC50 (SW620 cells (KRAS G12V); [5]) of under 100 nM. It also gave an IC50 (HCT116 cells (KRAS G13D); Homo sapiens, HCT-116) of 100 to 1000 nM and an IC50 [2] of under 100 nM.
For `CCN(c1nc(OC[C@@]23CCCN2C[C@H](F)C3)nc2c(F)c(-c3ccc(F)c4sc(N)c(C#N)c34)c(C(F)(F)F)cc12)[C@H]1CCN(C(C)=O)C1` [Compound 262], the IC50 (SW1900 cells (KRAS G12D); [3]) was at most 100 nM, the IC50 [1] was under 100 nM and the IC50 (SW620 cells (KRAS G12V); [4]) was under 100 nM. It also gave an IC50 (SW620 cells (KRAS G12V); [5]) of under 100 nM, an IC50 (HCT116 cells (KRAS G13D); Homo sapiens, HCT-116) of 100 to 1000 nM and an IC50 [2] of under 100 nM.
